Experimental data: patent US20170152226A1, “FUNCTIONALISED AND SUBSTITUTED INDOLES AS ANTI-CANCER AGENTS” (Novogen Ltd., priority 2014, published 2017)
Read-outs that look alike come from different tables or passages of the source.

Assays:
Experiment in all cases: Anti-proliferative activity, cell-titre luminescent viability assay
Assay type in all cases: cell-based
CaCo2 = conditions: Homo sapiens, read-out: IC50 Colorectal CaCo2
Experimental: (§1) The ability of compounds 3501-3540 and 3542-3545 to inhibit the proliferation of cancer cells representative of neuroblastoma, melanoma, prostate cancer, colorectal cancer, non-small cell lung carcinoma, and triple negative breast cancer was assessed. Briefly, a pre-determined number of cells as calculated from cell growth assays for each of the cell lines employed were seeded into their respective culture medium (using ATCC culture parameters—http://www.atcc.org) and cultured for 24 hours at 37° C. and 5% CO2 in 96-well culture plates. Once attached, each cell line was then exposed to increasing concentrations of each respective analogue (0.03, 0.3, 3 and 30 μM for compounds in Table 1; 0.1, 0.3, 1, 3, 10 and 30 μM for compounds in Table 2), cultured for a further 72 hours and exposed to cell-titre luminescent reagent (100 μL/well) for a further 30 min) to assess for cell viability. Luminescence was captured using an EnVision multilabel reader and the data for each analogue concentration was normalized, as a percentage, to the no treatment control. For compounds 3501, 3503, 3505-08, 3512-18, 3520, 3522-24 and 3531-36, semi-log plots of Percent of Control versus concentration were prepared and IC50 determined using linear regression analysis. For compounds 3502, 3504, 3509-11, 3519, 3521, 3525-30, 3537-40 and 3542-45, cell viability was normalized to control (vehicle alone) and dose-response curves, and half maximal effective concentration (EC50) values were determined using Graph Pad Prism 6 (nonlinear regression sigmoidal dose-response variable slope).

PC3 = conditions: Homo sapiens, read-out: IC50 Prostate PC3
Experimental: as §1

SK-N-SH = conditions: Homo sapiens, SK-N-SH, read-out: IC50 Neuroblastoma SK-N-SH
Experimental: as §1

MDA-MB-231 = conditions: Homo sapiens, read-out: IC50 Breast MDA-MB-231
Experimental: as §1

A549 = conditions: Homo sapiens, read-out: IC50 Lung (NSLC) A549
Experimental: as §1

SK-Mel-28 = conditions: Homo sapiens, SK-MEL-28, 72 hours, read-out: IC50 Melanoma SK-Mel-28
Experimental: as §1

DU145 = conditions: Homo sapiens, read-out: IC50 Prostate DU145
Experimental: as §1

[1] = Caco-2, 72 h, 0.03, 0.3, 3 and 30 μM, linear regression of semi-log plots
[2] = PC-3, 72 h, 0.03, 0.3, 3 and 30 μM, linear regression of semi-log plots
[3] = 72 h, 0.03, 0.3, 3 and 30 μM, linear regression of semi-log plots
[4] = MDA-MB-231, 72 h, 0.03, 0.3, 3 and 30 μM, linear regression of semi-log plots
[5] = A549, 72 h, 0.03, 0.3, 3 and 30 μM, linear regression of semi-log plots
[6] = 0.03, 0.3, 3 and 30 μM, linear regression of semi-log plots
[7] = DU-145, 72 h, 0.03, 0.3, 3 and 30 μM, linear regression of semi-log plots
[8] = Caco-2, 72 h, 0.1, 0.3, 1, 3, 10 and 30 μM, nonlinear regression sigmoidal dose-response (EC50)
[9] = PC-3, 72 h, 0.1, 0.3, 1, 3, 10 and 30 μM, nonlinear regression sigmoidal dose-response (EC50)
[10] = 72 h, 0.1, 0.3, 1, 3, 10 and 30 μM, nonlinear regression sigmoidal dose-response (EC50)
[11] = MDA-MB-231, 72 h, 0.1, 0.3, 1, 3, 10 and 30 μM, nonlinear regression sigmoidal dose-response (EC50)
[12] = A549, 72 h, 0.1, 0.3, 1, 3, 10 and 30 μM, nonlinear regression sigmoidal dose-response (EC50)
[13] = 0.1, 0.3, 1, 3, 10 and 30 μM, nonlinear regression sigmoidal dose-response (EC50)
[14] = DU-145, 72 h, 0.1, 0.3, 1, 3, 10 and 30 μM, nonlinear regression sigmoidal dose-response (EC50)

**Q.** With `Cc1c(C)n(CCCN2CCN(C)CC2)c2ccc(Nc3cccc(C(=O)N4CCN(CCc5ccccc5)CC4)c3)cc12` [Compound 3518, (3-((2,3-dimethyl-1-(3-(4-methylpiperazin-1-yl)propyl)-1H-indol-5-yl)amino)phenyl)(4-phenethylpiperazin-1-yl)methanone] as the compound, how does the IC50 (CaCo2; [1]) read?
**A.** The IC50 was 2500 nM.

**Q.** And the IC50 (PC3; [2])?
**A.** The IC50 was 4100 nM.

**Q.** What about the IC50 (SK-N-SH; [3]) of the same compound?
**A.** The IC50 was 2300 nM.

**Q.** What about the IC50 (MDA-MB-231; [4]) of the same compound?
**A.** The IC50 was 2100 nM.

**Q.** What about the IC50 (A549; [5]) of the same compound?
**A.** Its IC50 is 3000 nM.

**Q.** What about the IC50 (SK-Mel-28; [6]) of the same compound?
**A.** Its IC50 is 2400 nM.

**Q.** And the IC50 (DU145; [7])?
**A.** Its IC50 is 3200 nM.

**Q.** Which IC50 (CaCo2; [8]) does the source give for `Cc1c(C)n(CCCN2CCN(C)CC2)c2ccc(Cc3ccc(C(=O)N4CCN(CCc5ccc(F)cc5)CC4)cc3)cc12` [Compound 3519, (4-((2,3-dimethyl-1-(3-(4-methylpiperazin-1-yl)propyl)-1H-indol-5-yl)methyl)phenyl)(4-(4-fluorophenethyl)piperazin-1-yl)methanone] here?
**A.** The IC50 was 5600 nM.

**Q.** And the IC50 (PC3; [9])?
**A.** Its IC50 is 4900 nM.

**Q.** And the IC50 (SK-N-SH; [10])?
**A.** Its IC50 is 2600 nM.

**Q.** What about the IC50 (MDA-MB-231; [11]) of the same compound?
**A.** Its IC50 is 5000 nM.

**Q.** What about the IC50 (A549; [12]) of the same compound?
**A.** Its IC50 is 4400 nM.

**Q.** And the IC50 (SK-Mel-28; [13])?
**A.** The IC50 was 2500 nM.

**Q.** What about the IC50 (DU145; [14]) of the same compound?
**A.** Its IC50 is 4300 nM.

**Q.** Which results are given for `Cc1c(C)n(CCCN2CCN(C)CC2)c2ccc(Cc3ccc(C(=O)N4CCN(CCc5ccc6c(c5)OCO6)CC4)cc3)cc12` [Compound 3521, (4-(2-(benzo[d][1,3]dioxol-5-yl)ethyl)piperazin-1-yl)(4-((2,3-dimethyl-1-(3-(4-methylpiperazin-1-yl)propyl)-1H-indol-5-yl)methyl)phenyl)methanone]?
**A.** IC50 (CaCo2; [8]): 6000 nM; IC50 (PC3; [9]): 6300 nM; IC50 (SK-N-SH; [10]): 4200 nM; IC50 (MDA-MB-231; [11]): 6600 nM; IC50 (A549; [12]): 5900 nM; IC50 (SK-Mel-28; [13]): 4100 nM; IC50 (DU145; [14]): 5700 nM

**Q.** `Cc1c(C)n(CCCN2CCN(C)CC2)c2ccc(Cc3ccc(C(=O)N4CCN(CCc5cccc(F)c5)CC4)cc3)cc12` [Compound 3522, (4-((2,3-dimethyl-1-(3-(4-methylpiperazin-1-yl)propyl)-1H-indol-5-yl)methyl)phenyl)(4-(3-fluorophenethyl)piperazin-1-yl)methanone] was tested. Which IC50 (CaCo2; [1]) did it give?
**A.** Its IC50 is 3000 nM.

**Q.** And the IC50 (PC3; [2])?
**A.** The IC50 was 2500 nM.

**Q.** What about the IC50 (SK-N-SH; [3]) of the same compound?
**A.** The IC50 was 2000 nM.

**Q.** What about the IC50 (MDA-MB-231; [4]) of the same compound?
**A.** The IC50 was 1300 nM.

**Q.** What about the IC50 (A549; [5]) of the same compound?
**A.** Its IC50 is 1600 nM.

**Q.** And the IC50 (SK-Mel-28; [6])?
**A.** The IC50 was 1000 nM.

**Q.** And the IC50 (DU145; [7])?
**A.** Its IC50 is 2400 nM.

**Q.** With `COc1cccc(CCN2CCN(C(=O)c3ccc(Cc4ccc5c(c4)c(C)c(C)n5CCCN4CCN(C)CC4)cc3)CC2)c1` [Compound 3523, (4-((2,3-dimethyl-1-(3-(4-methylpiperazin-1-yl)propyl)-1H-indol-5-yl)methyl)phenyl)(4-(3-methoxyphenethyl)piperazin-1-yl)methanone] as the compound, how does the IC50 (CaCo2; [1]) read?
**A.** The IC50 was 3100 nM.

**Q.** What about the IC50 (PC3; [2]) of the same compound?
**A.** Its IC50 is 2400 nM.

**Q.** And the IC50 (SK-N-SH; [3])?
**A.** Its IC50 is 2100 nM.

**Q.** And the IC50 (MDA-MB-231; [4])?
**A.** The IC50 was 1100 nM.

**Q.** What about the IC50 (A549; [5]) of the same compound?
**A.** The IC50 was 1400 nM.

**Q.** What about the IC50 (SK-Mel-28; [6]) of the same compound?
**A.** Its IC50 is 800 nM.

**Q.** And the IC50 (DU145; [7])?
**A.** Its IC50 is 2100 nM.

**Q.** With `Cc1c(C)n(CCCN2CCN(C)CC2)c2ccc(Cc3ccc(C(=O)N4CCN(CCc5ccccc5)CC4)cc3)cc12` [Compound 3524, (4-((2,3-dimethyl-1-(3-(4-methylpiperazin-1-yl)propyl)-1H-indol-5-yl)methyl)phenyl)(4-phenethylpiperazin-1-yl)methanone] as the compound, how does the IC50 (CaCo2; [1]) read?
**A.** Its IC50 is 1700 nM.

**Q.** And the IC50 (PC3; [2])?
**A.** The IC50 was 900 nM.

**Q.** And the IC50 (SK-N-SH; [3])?
**A.** The IC50 was 1400 nM.

**Q.** What about the IC50 (MDA-MB-231; [4]) of the same compound?
**A.** The IC50 was 1100 nM.

**Q.** And the IC50 (A549; [5])?
**A.** Its IC50 is 900 nM.

**Q.** And the IC50 (SK-Mel-28; [6])?
**A.** Its IC50 is 1100 nM.

**Q.** What about the IC50 (DU145; [7]) of the same compound?
**A.** The IC50 was 1800 nM.

**Q.** For `Cc1c(C)n(CCCN2CCN(C)CC2)c2ccc(Oc3ccc(C(=O)N4CCN(CCc5ccc(F)cc5)CC4)cc3)cc12` [Compound 3525, (4-((2,3-dimethyl-1-(3-(4-methylpiperazin-1-yl)propyl)-1H-indol-5-yl)oxy)phenyl)(4-(4-fluorophenethyl)piperazin-1-yl)methanone], which IC50 (CaCo2; [8]) is on record?
**A.** Its IC50 is 4100 nM.

**Q.** What about the IC50 (PC3; [9]) of the same compound?
**A.** The IC50 was 4500 nM.

**Q.** And the IC50 (SK-N-SH; [10])?
**A.** Its IC50 is 1900 nM.

**Q.** What about the IC50 (MDA-MB-231; [11]) of the same compound?
**A.** Its IC50 is 4300 nM.

**Q.** What about the IC50 (A549; [12]) of the same compound?
**A.** The IC50 was 3800 nM.

**Q.** What about the IC50 (SK-Mel-28; [13]) of the same compound?
**A.** The IC50 was 1700 nM.

**Q.** What about the IC50 (DU145; [14]) of the same compound?
**A.** Its IC50 is 4100 nM.
